Each structure is given as a SMILES string.

The target of one assay is T1, Lysine-specific histone demethylase 1A (Homo sapiens, UniProt O60341). Briefly: Inhibition of recombinant LSD1 (unknown origin) extracted from Escherichia coli BL21 (DE3) using H3K4me2 peptide as substrate in presence of […] by Amplex Red assay.
Conditions: not given
For orientation: IC50 means the point on the concentration scale where inhibition reaches its midpoint. In the case of `C=C1C(=O)OCC1C(O)c1cn(S(=O)(=O)c2ccc(Cl)cc2)c2ccc(Cl)cc12` (configuration not stated), the IC50 came to 929 nM. With `C=C1C(=O)OCC1C(O)c1cn(S(=O)(=O)C2CC2)c2ccc(Cl)cc12` (configuration not stated), the 50% inhibitory concentration (IC50) is 5680 nM. On the same count and under the same terms, for `C=C1C(=O)OCC1C(O)c1cn(S(C)(=O)=O)c2ccc(Cl)cc12` (configuration not stated) the value was 9130 nM; for `C=C1C(=O)OCC1C(O)c1cn(S(=O)(=O)c2ccc(N(CCC)CCC)c([N+](=O)[O-])c2)c2ccc(Cl)cc12` (configuration not stated), 3390 nM. The same measure, in the same setting: as for `C=C1C(=O)OCC1C(O)c1cn(S(=O)(=O)c2ccc(N3CCCC3)c([N+](=O)[O-])c2)c2ccc(Cl)cc12` (configuration not stated), the figure is 2480 nM; as for `C=C1C(=O)OCC1C(O)c1cn(S(=O)(=O)c2ccc(N3CCCC(NC(=O)OC(C)(C)C)C3)c([N+](=O)[O-])c2)c2ccc(Cl)cc12` (configuration not stated), 714 nM; as for `C=C1C(=O)OCC1C(O)c1cn(S(=O)(=O)c2ccccc2Cl)c2ccc(Cl)cc12` (configuration not stated), 366 nM. The same measure, in the same setting: as for `C=C1C(=O)OCC1C(O)c1ccn(S(=O)(=O)c2ccc(Br)cc2)c1` (configuration not stated), the figure is greater than 10000 nM; as for `C=C1C(=O)OCC1C(O)c1cn(S(=O)(=O)CCC)c2ccc(Cl)cc12` (configuration not stated), 6650 nM; as for `C=C1C(=O)OCC1C(O)c1cn(S(=O)(=O)c2ccc(F)cc2)c2ccc(Cl)cc12` (configuration not stated), 1340 nM.

For `O=S(=O)(c1ccc(Cl)cc1)n1cc(CNC2CC2)c2cc(Cl)ccc21`, the half-maximal inhibitory concentration (IC50) is greater than 10000 nM. The same measure, in the same setting: as for `C=C1C(=O)OCC1C(O)c1cn(S(=O)(=O)c2ccccc2C)c2ccc(Cl)cc12` (configuration not stated), the figure is 261 nM; as for `C=C1C(=O)OCC1C(O)c1cn(S(=O)(=O)c2ccc(Cl)c([N+](=O)[O-])c2)c2ccc(Cl)cc12` (configuration not stated), 99 nM. For the compound `C=C1C(=O)OCC1C(O)c1cn(S(=O)(=O)c2ccc(F)c(C(F)(F)F)c2)c2ccc(Cl)cc12` (configuration not stated), the IC50 was found to be 654 nM. As to `C=C1C(=O)OCC1C(O)c1cn(S(=O)(=O)c2ccc(Br)cc2)c2ccc(Cl)cc12` (configuration not stated), the half-inhibitory concentration (IC50) was determined as 1150 nM. The same measure, in the same setting: as for `C=C1C(=O)OCC1C(O)c1cn(S(=O)(=O)c2ccc(N3CCCN(C(=O)OC(C)(C)C)CC3)c([N+](=O)[O-])c2)c2ccc(Cl)cc12` (configuration not stated), the figure is 4960 nM; as for `C=C1C(=O)OCC1C(O)c1cn(S(=O)(=O)c2ccc(N3CCC(NC(=O)OC(C)(C)C)C3)c([N+](=O)[O-])c2)c2ccc(Cl)cc12` (configuration not stated), 440 nM; as for `C=C1C(=O)OCC1C(O)c1cn(S(=O)(=O)c2ccc(N3C[C@@H]4C[C@H]3CN4C(=O)OC(C)(C)C)c([N+](=O)[O-])c2)c2ccc(Cl)cc12` (some centres not stated), 3350 nM. Same read-out and setting: as for `C=C1C(=O)OCC1C(O)c1cn(S(=O)(=O)c2ccc(NCC(C)C)c([N+](=O)[O-])c2)c2ccc(Cl)cc12` (configuration not stated), the figure is 131 nM. Consider `C=C1C(=O)OCC1C(O)c1cn(S(=O)(=O)c2ccc(OC)cc2)c2ccc(Cl)cc12` (configuration not stated), for which the IC50 turned out to be 855 nM. Consider `C=C1C(=O)OCC1C(O)c1cn(S(=O)(=O)c2ccc(NCCC)c([N+](=O)[O-])c2)c2ccc(Cl)cc12` (configuration not stated), for which the IC50 came out at 664 nM. On the same count and under the same terms, as for `C=C1C(=O)OCC1C(O)c1cn(S(=O)(=O)c2ccccc2)c2ccc(Cl)cc12` (configuration not stated), the figure is 1110 nM; as for `C=C1C(=O)OCC1C(O)c1cn(S(=O)(=O)c2ccc(N3CCN(C(=O)OC(C)(C)C)CC3)c([N+](=O)[O-])c2)c2ccc(Cl)cc12` (configuration not stated), 459 nM. Take `C=C1C(=O)OCC1C(O)c1cn(S(=O)(=O)c2ccc([N+](=O)[O-])cc2)c2ccc(Cl)cc12` (configuration not stated): the IC50 is 1380 nM. On the same count and under the same terms, for `C=C1C(=O)OCC1C(O)c1cn(S(=O)(=O)c2ccc(NC)c([N+](=O)[O-])c2)c2ccc(Cl)cc12` (configuration not stated) the value was 89 nM; for `C=C1C(=O)OCC1C(O)c1cn(S(=O)(=O)c2ccc(CBr)cc2)c2ccc(Cl)cc12` (configuration not stated), 933 nM; for `C=C1C(=O)OCC1C(O)c1cn(S(=O)(=O)c2ccc(C(F)(F)F)cc2)c2ccc(Cl)cc12` (configuration not stated), 1460 nM. Still for that read-out and setting: as for `C=C1C(=O)OCC1C(O)c1cn(S(=O)(=O)c2ccc(Cl)c(N)c2)c2ccc(Cl)cc12` (configuration not stated), the figure is greater than 5000 nM; as for `C=C1C(=O)OCC1C(O)c1cn(S(=O)(=O)c2ccc(CN3CCN(C(=O)OC(C)(C)C)CC3)cc2)c2ccc(Cl)cc12` (configuration not stated), 1180 nM; as for `C=C1C(=O)OCC1C(O)c1cn(S(=O)(=O)c2ccc(CNCc3ccc(Cl)cc3)cc2)c2ccc(Cl)cc12` (configuration not stated), 2340 nM.

As for `C=C1C(=O)OCC1C(O)c1cn(S(=O)(=O)c2ccc(CN3CCOCC3)cc2)c2ccc(Cl)cc12` (configuration not stated), the 50% inhibitory concentration (IC50) came to 606 nM. On the same count and under the same terms, for `C=C1C(=O)OCC1C(O)c1cn(S(=O)(=O)c2cccc(C(F)(F)F)c2)c2ccc(Cl)cc12` (configuration not stated) the value was 213 nM; for `O=S(=O)(c1ccc(Cl)cc1)n1cc(CNCC2CC2)c2cc(Cl)ccc21`, greater than 10000 nM; for `C=C1C(=O)OCC1C(O)c1ccn(S(=O)(=O)c2ccc(Cl)cc2)c1` (configuration not stated), greater than 10000 nM. On to `C=C1C(=O)OCC1C(O)c1cn(S(=O)(=O)c2ccc(Cl)c(Cl)c2)c2ccc(Cl)cc12` (configuration not stated), for which the IC50 was found to be 579 nM. For the compound `C=C1C(=O)OCC1C(O)c1cn(S(=O)(=O)c2ccc(N3CCN(C)CC3)c([N+](=O)[O-])c2)c2ccc(Cl)cc12` (configuration not stated), the IC50 came to 463 nM. Still for that read-out and setting: as for `C=C1C(=O)OCC1C(O)c1cn(S(=O)(=O)c2ccccc2[N+](=O)[O-])c2ccc(Cl)cc12` (configuration not stated), the figure is 755 nM. Still for that read-out and setting: as for `C=C1C(=O)OCC1C(O)c1cn(S(=O)(=O)c2ccc(N3CCCCC3)c([N+](=O)[O-])c2)c2ccc(Cl)cc12` (configuration not stated), the figure is 2130 nM. For the compound `C=C1C(=O)OCC1C(O)c1cn(S(=O)(=O)c2ccc(OC(F)(F)F)cc2)c2ccc(Cl)cc12` (configuration not stated), the IC50 stood at 1420 nM. Still for that read-out and setting: for `C=C1C(=O)OCC1C(O)c1cn(S(=O)(=O)c2ccccc2Br)c2ccc(Cl)cc12` (configuration not stated) the value was 161 nM. On to `C=C1C(=O)OCC1C(O)c1cn(S(=O)(=O)c2ccccc2F)c2ccc(Cl)cc12` (configuration not stated), for which the IC50 was determined as 219 nM.

As to `C=C1C(=O)OCC1C(O)c1ccn(S(=O)(=O)c2ccc(C)cc2)c1` (configuration not stated), the IC50 is greater than 10000 nM. On the same count and under the same terms, as for `C=C1C(=O)OCC1C(=O)c1cn(S(=O)(=O)c2ccc(Cl)cc2)c2ccc(Cl)cc12` (configuration not stated), the figure is greater than 10000 nM; as for `C=C1C(=O)OCC1C(O)c1cn(S(=O)(=O)c2c(Cl)cccc2Cl)c2ccc(Cl)cc12` (configuration not stated), 968 nM. On to `C=C1C(=O)OCC1C(O)c1cn(S(=O)(=O)c2cccc([N+](=O)[O-])c2)c2ccc(Cl)cc12` (configuration not stated), for which the IC50 was 107 nM.

With `C=C1C(=O)OC/C1=C\c1cn(S(=O)(=O)c2ccc(Cl)cc2)c2ccc(Cl)cc12`, the concentration for half-maximal inhibition (IC50) is greater than 10000 nM. Same read-out and setting: as for `C=C1C(=O)OCC1C(O)c1cn(S(=O)(=O)c2cccc(Cl)c2)c2ccc(Cl)cc12` (configuration not stated), the figure is 746 nM; as for `C=C1C(=O)OCC1C(O)c1cn(S(=O)(=O)c2ccc(Cl)cc2Cl)c2ccc(Cl)cc12` (configuration not stated), 363 nM. The same measure, in the same setting: for `C=C1C(=O)OCC1C(O)c1cn(S(=O)(=O)c2ccc(N3CCN(CC)CC3)c([N+](=O)[O-])c2)c2ccc(Cl)cc12` (configuration not stated) the value was 287 nM; for `C=C1C(=O)OCC1C(O)c1cn(S(=O)(=O)c2ccc(N3CCN(CCO)CC3)c([N+](=O)[O-])c2)c2ccc(Cl)cc12` (configuration not stated), 284 nM.

The next assay deals with T1, Lysine-specific histone demethylase 1A. Briefly: Inhibition of LSD1 in human MKN-45 cells assessed as accumulation of membrane PD-L1 at 2 uM incubated for 5 days. It counts as cell-based. Details: scale not given: the % may be the effect or the level left. Particulars: time 5.0 day.
In the case of `N[C@H]1CC[C@H](N[C@@H]2C[C@H]2c2ccccc2)CC1`, the Activity was 48.5%.

The next assay concerns the target Lysine-specific histone demethylase 1A (Mus musculus) (UniProt Q6ZQ88). Briefly: Inhibition of LSD1 in mouse MFC cells assessed as accumulation of membrane PD-L1 at 2 uM incubated for 5 days. Type of assay: cell-based. Details: scale not given: the % may be the effect or the level left. The settings on record: time 5.0 day.
As to `N[C@H]1CC[C@H](N[C@@H]2C[C@H]2c2ccccc2)CC1`, the Activity worked out at 40.4%.

The values are drawn from ChEMBL document CHEMBL6134893, “The Exploration of Indole-Based LSD1-Targeted Inhibitors for Enhanced Immune Response in Gastric Cancer via the PD-L1/PD-1 Axis” (J Med Chem, 2025).
